Columns and labels:
[1] = biological target: T1, DYRK2 (Homo sapiens, UniProt Q92630); experiment: radiometric protein kinase assay; format: biochemical; details: 15 μmol/L ATP; read-out: IC50 DYRK 2
T1 sequence (Q92630 1-601): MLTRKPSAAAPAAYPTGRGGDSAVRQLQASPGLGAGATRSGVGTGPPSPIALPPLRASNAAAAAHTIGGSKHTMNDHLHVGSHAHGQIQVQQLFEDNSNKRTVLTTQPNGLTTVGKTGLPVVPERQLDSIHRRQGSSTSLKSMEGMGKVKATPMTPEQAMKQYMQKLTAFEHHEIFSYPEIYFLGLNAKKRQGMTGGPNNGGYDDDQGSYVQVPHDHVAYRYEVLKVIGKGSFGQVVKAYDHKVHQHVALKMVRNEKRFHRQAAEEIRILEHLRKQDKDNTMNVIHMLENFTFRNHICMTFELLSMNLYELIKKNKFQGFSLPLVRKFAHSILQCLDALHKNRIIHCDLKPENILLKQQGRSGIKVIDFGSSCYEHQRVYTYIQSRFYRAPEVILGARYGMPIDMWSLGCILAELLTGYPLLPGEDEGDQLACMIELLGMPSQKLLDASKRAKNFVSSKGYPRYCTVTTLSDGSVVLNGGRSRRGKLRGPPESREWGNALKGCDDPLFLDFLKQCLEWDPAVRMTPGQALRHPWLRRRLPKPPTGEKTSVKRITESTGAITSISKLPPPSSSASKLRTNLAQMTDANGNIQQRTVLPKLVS

[2] = tested on: 786–0; experiment: NCI cancer cell line screening; format: cell-based; details: Homo sapiens; 786–0, Renal Cancer
Experimental: (§1) Being the most promising compound in terms of CLK1 inhibitory potency and selectivity, KuWal151 (8c) was tested in the National Cancer Institute cancer cell line screening on 57 tumor cell lines of different tissue origin [45]. With only a few exceptions, KuWal151 inhibited the growth of most cell lines in submicromolar concentrations. In Table 2 the cancer cell line inhibition data is listed with the expression rates of SPF45 and CLK1 as indicated in the Expression Atlas database (https://www.ebi.ac.uk/gxa/home). Apparently the cell lines with high levels of CLK1 encoding RNA are inhibited over average. […] However, the available data are not sufficient to construe a clear relationship between the expression levels of the putative target CLK1 and sensitivity of the cell lines against 8c. The same holds true for SPF45, an important substrate of CLK1 involved in splicing which is found to be overexpressed in many cancer cell lines. […] The lack of a straight relationship between CLK1 and/or SPF45 expression levels on the one hand and sensitivity against the CLK1 inhibitor 8c on the other hand may have various reasons, e.g. different uptake rates of the inhibitor by the cells or alternative intracellular targets. For verification of the results from the NCI screening, which is based on the in situ fixation of cells followed by staining with the protein-binding dye sulforhodamin B [47, 48], 8c was also tested on two cell lines of the NCI panel (HT-29 and MDA-MB-231) in a crystal violet assay.

[3] = tested on: ACHN; experiment: NCI cancer cell line screening; format: cell-based; details: Homo sapiens, Renal Cancer
Experimental: as §1

[4] = tested on: BT-549; experiment: NCI cancer cell line screening; format: cell-based; details: Homo sapiens; BT-549, Breast Cancer
Experimental: as §1

[5] = tested on: COLO 205; experiment: NCI cancer cell line screening; format: cell-based; details: Homo sapiens; COLO 205, Colon Cancer
Experimental: as §1

[6] = tested on: DU-145; experiment: NCI cancer cell line screening; format: cell-based; details: Homo sapiens; DU-145, Prostate Cancer
Experimental: as §1

[7] = tested on: HCC-2998; experiment: NCI cancer cell line screening; format: cell-based; details: Homo sapiens; HCC-2998, Colon Cancer
Experimental: as §1

[8] = tested on: HCT-15; experiment: NCI cancer cell line screening; format: cell-based; details: Homo sapiens; HCT-15, Colon Cancer
Experimental: as §1

[9] = tested on: HT29; experiment: NCI cancer cell line screening; format: cell-based; details: Homo sapiens, HT-29; HT29, Colon Cancer
Experimental: as §1

[10] = tested on: IGROV1; experiment: NCI cancer cell line screening; format: cell-based; details: Homo sapiens, IGROV-1; IGROV1, Ovarian Cancer
Experimental: as §1

[11] = tested on: KM12; experiment: NCI cancer cell line screening; format: cell-based; details: Homo sapiens; KM12, Colon Cancer
Experimental: as §1

[12] = tested on: M14; experiment: NCI cancer cell line screening; format: cell-based; details: Homo sapiens; M14, Melanoma
Experimental: as §1

[13] = tested on: MDA-MB-231/ATCC; experiment: NCI cancer cell line screening; format: cell-based; details: Homo sapiens, Breast Cancer
Experimental: as §1

[14] = tested on: MDA-MB-435; experiment: NCI cancer cell line screening; format: cell-based; details: Homo sapiens
Experimental: as §1

[15] = tested on: MDA-MB-468; experiment: NCI cancer cell line screening; format: cell-based; details: Homo sapiens; MDA-MB-468, Breast Cancer
Experimental: as §1

[16] = tested on: NCI-H23; experiment: NCI cancer cell line screening; format: cell-based; details: Homo sapiens; NCI-H23, Non-Small Cell Lung Cancer
Experimental: as §1

[17] = tested on: NCI-H322M; experiment: NCI cancer cell line screening; format: cell-based; details: Homo sapiens, Non-Small Cell Lung Cancer
Experimental: as §1

[18] = tested on: NCI/ADR-RES; experiment: NCI cancer cell line screening; format: cell-based; details: Homo sapiens, Ovarian Cancer
Experimental: as §1

[19] = tested on: OVCAR-4; experiment: NCI cancer cell line screening; format: cell-based; details: Homo sapiens; OVCAR-4, Ovarian Cancer
Experimental: as §1

[20] = tested on: PC-3; experiment: NCI cancer cell line screening; format: cell-based; details: Homo sapiens; PC-3, Prostate Cancer
Experimental: as §1

[21] = tested on: RXF 393; experiment: NCI cancer cell line screening; format: cell-based; details: Homo sapiens; RXF 393, Renal Cancer
Experimental: as §1

[22] = tested on: SK-MEL-2; experiment: NCI cancer cell line screening; format: cell-based; details: Homo sapiens; SK-MEL-2, Melanoma
Experimental: as §1

[23] = tested on: SK-MEL-5; experiment: NCI cancer cell line screening; format: cell-based; details: Homo sapiens; SK-MEL-5, Melanoma
Experimental: as §1

[24] = tested on: SK-OV-3; experiment: NCI cancer cell line screening; format: cell-based; details: Homo sapiens; SK-OV-3, Ovarian Cancer
Experimental: as §1

[25] = tested on: U251; experiment: NCI cancer cell line screening; format: cell-based; details: Homo sapiens, U-251; U251, CNS Cancer
Experimental: as §1

[26] = biological target: CLK1 (Mus musculus, UniProt P22518); experiment: radiometric protein kinase assay
Sequence of CLK1 (P22518 whole entry): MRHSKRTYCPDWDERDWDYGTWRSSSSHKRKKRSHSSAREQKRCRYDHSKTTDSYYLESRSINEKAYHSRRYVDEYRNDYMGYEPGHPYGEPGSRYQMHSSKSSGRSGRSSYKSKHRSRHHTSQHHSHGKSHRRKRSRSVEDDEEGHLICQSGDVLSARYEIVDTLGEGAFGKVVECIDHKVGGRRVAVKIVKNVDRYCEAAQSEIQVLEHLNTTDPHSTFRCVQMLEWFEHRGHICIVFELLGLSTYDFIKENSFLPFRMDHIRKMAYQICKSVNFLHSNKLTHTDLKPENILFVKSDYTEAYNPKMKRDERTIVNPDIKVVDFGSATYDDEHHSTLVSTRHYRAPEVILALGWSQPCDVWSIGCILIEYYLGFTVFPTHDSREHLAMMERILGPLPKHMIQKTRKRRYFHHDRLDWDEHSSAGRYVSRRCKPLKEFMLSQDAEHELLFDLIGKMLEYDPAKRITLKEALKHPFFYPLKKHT
Experimental: Buffer A: 10 mM MgCl2, 1 mM EGTA, 1 mM DTT, 25 mM Tris-HCl pH 7.5, 50 μg heparin/mL. Buffer C: 60 mM β-glycerophosphate, 15 mM p-nitrophenylphosphate, 25 mM MOPS (pH 7.2), 15 mM EGTA, 15 mM MgCl2, 1 mM DTT, 1 mM sodium vanadate, 1 mM phenylphosphate.
Controls were performed with appropriate dilutions of DMSO. The GS-1, CKS, CDK7/9 tide and RS peptide substrates were obtained from Proteogenix (Oberhausbergen, France).
CDK1/cyclin B (M phase starfish oocytes, native), CDK2/cyclin A and CDK5/p25 (human, recombinant) were prepared as previously described [33]. […] ATP (3,000 Ci/mmol; 10 mCi/mL) in a final volume of 30 μL. After 30 min incubation at 30°C, the reaction was stopped by harvesting onto P81 phosphocellulose supernatant (Whatman) using a FilterMate harvester (Packard) and washing in 1% phosphoric acid. Scintillation fluid was added and the radioactivity measured in a Packard counter.
All data points for construction of dose response curves were recorded in triplicate.

SMILES: O=C1NCc2ccc3c(-c4cccc(Cl)c4)c[nH]c3c21 [8c, 3-(3-Chlorophenyl)-6,7-dihydropyrrolo[3,4-g]indol-8(1H)-one]
- IC50 [1]: > 10000 nM
- GI50 [2]: 275 nM
- GI50 [3]: 372 nM
- GI50 [4]: 204 nM
- GI50 [5]: 209 nM
- GI50 [6]: 316 nM
- GI50 [7]: 912 nM
- GI50 [8]: 178 nM
- GI50 [9]: 174 nM
- GI50 [10]: 427 nM
- GI50 [11]: 209 nM
- GI50 [12]: 132 nM
- GI50 [13]: 1380 nM
- GI50 ([14]; MDA-MB-435, MDA-MB-435, Melanoma): 72.4 nM
- GI50 ([14]; MDA-MB-435, MDA-MB-435, as quoted in text): 72 nM
- GI50 [15]: 234 nM
- GI50 [16]: 525 nM
- GI50 [17]: 2390 nM
- GI50 [18]: 178 nM
- GI50 [19]: 912 nM
- GI50 [20]: 339 nM
- GI50 [21]: 457 nM
- GI50 [22]: 316 nM
- GI50 [23]: 407 nM
- GI50 [24]: 275 nM
- GI50 [25]: 263 nM
- IC50 [26]: 88 nM
